Among the data in patent US4705799A, “Aminomethyl oxooxazolidinyl benzenes useful as antibacterial agents” (E. I. Du Pont de Nemours and Company, priority 1985, dated 1987) are MIC and ED50 values, retold here.

One assay concerns Escherichia coli. Description: In vitro broth dilution minimal inhibitory concentration (standard microdilution method). It is filed as cell-based. The settings on record: Escherichia coli; Mueller-Hinton broth; 24-hour; read-out: Microdilution Broth MIC.
For assay [1], the system named is Staphylococcus aureus. Kind of assay: In vivo efficacy of orally administered compounds in mouse intraperitoneal infections. The settings on record: Staphylococcus aureus, po, 168 h, mouse i.p. Staphylococcus aureus infection; oral; dosed at infection and 4 h post-infection; 7 days; read-out: ED50 (50 percent effective dose). On the procedure:
(§1) Determinations of in vivo efficacy are performed by inoculating mice intraperitoneally with cultures of the infecting organism diluted to produce 90-100% mortality in control animals within twenty-four hours. The diluents used were trypticase soy broth for E. coli and 5% aqueous hog gastric mucin for Staphylococcus aureus infections. The compounds are dissolved or suspended in 0.25% aqueous Methocel® (Methocel®: Hydroxypropyl Methylcellulose E15 Premium, Dow Chemical Company) for oral administration or sterile distilled water containing 5% dimethylsulfoxide (Fisher Scientific Company, Fairlawn, N.J.) for subcutaneous administration. The mice are dosed at the time of infection and again at four hours post-infection. Mortality is recorded daily until test termination seven days post infection and the 50 percent effective dose, ED50, is calculated by the Reed-Muench method (Reed, L. G. and Muench, H., "A simple method of estimating fifty percent end points," American Journal of Hygiene, 27, 493-497 (1938).

The subject of assay [2] is Staphylococcus epidermidis. Description: In vitro broth dilution minimal inhibitory concentration (standard microdilution method). The conditions noted are these: 24 h, Mueller-Hinton broth, 24-hour, read-out: Microdilution Broth MIC. Type of assay: cell-based.
Assay [3] deals with Staphylococcus aureus. Description: In vivo efficacy of compounds administered subcutaneously in mouse intraperitoneal infections. The settings on record: sc, 168 h; mouse i.p. Staphylococcus aureus infection; subcutaneous; dosed at infection and 4 h post-infection; 7 days; read-out: ED50 (50 percent effective dose). On the procedure:
as §1

≈ marks a conversion by molar mass, not a printed value. A value given as a limit tells only on which side of the number the result lay.

Broadly, the MIC is the least concentration at which growth counts as inhibited. For orientation: ED50 means the dose at which the effect has come halfway, by size or by number of responders. `COC(=O)c1ccc(N2CC(CNC(C)=O)OC2=O)cc1` (single isomer, unassigned) [Example 184, (l)-4-[(5-Acetylaminomethyl)-2-oxo-3-oxazolidinyl]benzoic acid methyl ester]: the results for the MIC (in the assay on Escherichia coli; in assay [2]) were > 128 mg/L and 4 mg/L (≈ 13.7 µM), respectively. Moreover, the ED50 in the assay with Staphylococcus aureus [1] is > 60 mg/kg; in the assay with Staphylococcus aureus [3] it was 37.5 mg/kg.

`CC(=O)c1ccc(N2CC(CN=[N+]=[N-])OC2=O)cc1` (centres unmarked) [Example 5]: the figures for the MIC (in the assay on Escherichia coli; in assay [2]) were > 200 mg/L and 200 mg/L (≈ 768 µM), respectively. The values for the ED50 with Staphylococcus aureus [1] and in the assay on Staphylococcus aureus [3] were 172 mg/kg and 41.2 mg/kg, respectively.

With `CC(C)c1ccc(N2CC(CN=[N+]=[N-])OC2=O)cc1` (centres unmarked) [Example 7], the MIC in the assay with Escherichia coli was > 200 mg/L; in assay [2], 100 mg/L (≈ 384 µM). Besides, the figures for the ED50 in the assay on Staphylococcus aureus [1] and in the assay on Staphylococcus aureus [3] were 24.2 mg/kg and 33.7 mg/kg, respectively.

Consider `CC(=O)c1ccc(N2CC(CN)OC2=O)cc1` (centres unmarked) [Example 15], for which the MIC (with Escherichia coli; in assay [2]) was > 200 mg/L each time. The ED50 with Staphylococcus aureus [1] was determined as 40 mg/kg; in the assay with Staphylococcus aureus [3], 24.9 mg/kg.

With `CC(C)c1ccc(N2CC(CN)OC2=O)cc1` (centres unmarked) [Example 17], the MIC (with Escherichia coli; in assay [2]) was > 200 mg/L throughout. Further, the ED50 with Staphylococcus aureus [1] is > 120 mg/kg; in the assay with Staphylococcus aureus [3], 24.9 mg/kg.

With `CS(=O)(=O)c1ccc(N2CC(CNC(=O)c3ccccc3)OC2=O)cc1` (centres unmarked) [Example 34], the MIC in the assay with Escherichia coli is > 200 mg/L; in assay [2] it was 25 mg/L (≈ 66.8 µM). The ED50 is > 120 mg/kg with Staphylococcus aureus [1] and 49.6 mg/kg with Staphylococcus aureus [3].

For `COC(=O)NCC1CN(c2ccc(C(F)(F)F)cc2)C(=O)O1` (centres unmarked) [Example 42], the figures for the MIC (in the assay on Escherichia coli; in assay [2]) were > 200 mg/L and 100 mg/L (≈ 314 µM), respectively. Besides, the ED50 worked out at 45.5 mg/kg with Staphylococcus aureus [1] and 20.9 mg/kg in the assay with Staphylococcus aureus [3].

Take `COC(=O)NCC1CN(c2ccc(S(N)(=O)=O)cc2)C(=O)O1` (centres unmarked) [Example 45]: the MIC in the assay with Escherichia coli was > 200 mg/L; in assay [2], 37.5 mg/L (≈ 114 µM). Besides, the ED50 in the assay on Staphylococcus aureus [1] is > 120 mg/kg; with Staphylococcus aureus [3], 9.6 mg/kg.

With `CSc1ccc(N2CC(CNC(=O)C3CC3)OC2=O)cc1` (centres unmarked) [Example 71], the MIC in the assay with Escherichia coli was > 200 mg/L; in assay [2] it was 50 mg/L (≈ 163 µM). Also, the ED50 was > 120 mg/kg in the assay on Staphylococcus aureus [1] and 69.3 mg/kg in the assay on Staphylococcus aureus [3].

Take `CS(=O)(=O)c1ccc(N2CC(CNC(=O)C3CC3)OC2=O)cc1` (centres unmarked) [Example 72]: the MIC came to 200 mg/L (≈ 591 µM) in the assay with Escherichia coli and 25 mg/L (≈ 73.9 µM) in assay [2]. The ED50 is > 120 mg/kg in the assay on Staphylococcus aureus [1] and 15.2 mg/kg in the assay on Staphylococcus aureus [3].

On to `CC(=O)NCC1CN(c2ccc(C)cc2)C(=O)O1` (centres unmarked) [Example 79], for which the MIC with Escherichia coli was > 200 mg/L; in assay [2], 200 mg/L (≈ 806 µM). Further, the ED50 in the assay with Staphylococcus aureus [1] stood at 99.8 mg/kg; in the assay with Staphylococcus aureus [3], 85.1 mg/kg.

For `CCCCc1ccc(N2CC(CNC(=O)OC)OC2=O)cc1` (centres unmarked) [Example 80], the MIC was > 200 mg/L in the assay on Escherichia coli and 25 mg/L (≈ 81.6 µM) in assay [2]. Besides, the ED50 with Staphylococcus aureus [1] is 64 mg/kg; in the assay with Staphylococcus aureus [3], 42.3 mg/kg.

With `CC(=O)Cc1ccc(N2CC(CNC(C)=O)OC2=O)cc1` (centres unmarked) [Example 99], the MIC in the assay with Escherichia coli is > 200 mg/L; in assay [2], 25 mg/L (≈ 86.1 µM). For the same compound, the ED50 in the assay with Staphylococcus aureus [1] amounted to 77.4 mg/kg; in the assay with Staphylococcus aureus [3] it was 20.1 mg/kg.

On to `CC(=O)NCC1CN(c2ccc(CC(C)O)cc2)C(=O)O1` (centres unmarked) [Example 100], for which the minimum inhibitory concentration (MIC) with Escherichia coli is > 200 mg/L; in assay [2], 12.5 mg/L (≈ 42.8 µM). The ED50 in the assay with Staphylococcus aureus [1] is 19.5 mg/kg; with Staphylococcus aureus [3] it was 10.5 mg/kg.

On to `C=Cc1ccc(N2CC(CNC(C)=O)OC2=O)cc1` (centres unmarked) [Example 101], for which the values for the MIC (in the assay on Escherichia coli; in assay [2]) were 128 mg/L (≈ 492 µM) and 4 mg/L (≈ 15.4 µM), respectively. Besides, the ED50 with Staphylococcus aureus [1] stood at 10.6 mg/kg; in the assay on Staphylococcus aureus [3], 4.8 mg/kg.

For `CC(=O)NCC1CN(c2ccc(C(C)(O)CO)cc2)C(=O)O1` (centres unmarked) [Example 102], the MIC in the assay with Escherichia coli is > 128 mg/L; in assay [2] it was 16 mg/L (≈ 51.9 µM). Moreover, the ED50 in the assay with Staphylococcus aureus [1] was found to be 24 mg/kg; with Staphylococcus aureus [3] it was 9 mg/kg.

On to `CC(=O)NCC1CN(c2ccc(C(C)(C)C)cc2)C(=O)O1` (centres unmarked) [Example 105], for which the MIC is > 128 mg/L in the assay with Escherichia coli and 1 mg/L (≈ 3.44 µM) in assay [2]. Besides, the ED50 in the assay with Staphylococcus aureus [1] was 10.8 mg/kg; with Staphylococcus aureus [3] it was 13.8 mg/kg.
